Experimental data: publication PMC6271716, “Design, Synthesis and SAR Studies of NAD Analogues as Potent Inhibitors towards CD38 NADase” (Molecules, 2014)

Target: T1, CD38 NADase (Homo sapiens, UniProt P28907, N100D/N164D/N209D/N219D)
T1 construct: pPICZαA carrying the C-terminus of CD38 (AA46-300, with the four glycosylation sites mutated); made in house; host or cells: Pichia pastoris X33 (pPICZαA vector)
T1 sequence (P28907 46-300 N100D/N164D/N209D/N219D): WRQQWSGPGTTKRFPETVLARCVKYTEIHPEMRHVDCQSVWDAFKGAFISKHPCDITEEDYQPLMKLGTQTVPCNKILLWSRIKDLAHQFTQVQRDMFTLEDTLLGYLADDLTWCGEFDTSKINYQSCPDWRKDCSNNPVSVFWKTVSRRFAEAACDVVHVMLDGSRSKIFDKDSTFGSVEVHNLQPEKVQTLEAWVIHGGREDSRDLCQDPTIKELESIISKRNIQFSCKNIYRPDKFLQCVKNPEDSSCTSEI
Assay: Enzyme activity assay: inhibition of the NAD-glycohydrolase (NADase) activity of recombinant CD38 (NAD cycling assay)
Assay type: biochemical
Conditions: recombinant CD38 0.3 ng, 2 h preincubation at room temperature, NAD 2.5 µM
Procedure: Enzyme inhibition assays. The inhibitory activities to CD38 NADase of NAD analogues were evaluated by the method reported before. In this method, the inhibitions of NADase activities were calculated from the decrease of the NAD content.
Recombinant CD38, produced with a yeast expression system (Invitrogen, Carlsbad, CA, USA) was used to prepare the recombinant CD38 as reported previously. Briefly, pPICZαA carrying the C-terminus of CD38 (AA46-300, with the four glycosylation sites mutated, N100D, N164D, N209D and N219D) was transformed Pichia pastoris yeast, X33. The recombinant CD38 was induced by methanol and purified by phenylsepharose chromatography and cation exchange chromatography (SP column, GE Healthcare, Little Chalfont, UK). All the chemicals used in the enzymatic assays were purchased from Sigma (Santa Clara, CA, USA).
To study the inhibition of the NAD-glycohydrolase (NADase) activity of CD38 by the compounds, an enzymatic assay was performed. Briefly, different concentrations of the compound were mixed with recombinant CD38 (0.3 ng) and bovine serum albumin (1 µg) in a 16 µL-reaction mixture, then incubated in the dark for 2 hours at room temperature. NAD was added to the mixture to a final concentration of 2.5 µM to start the reaction. Aliquots (4 µL) of the reaction mixtures were withdrawn at 0, 4, 8 and 12 min, and the reaction was stopped by adding 4 µL of 0.6 M HCl, followed by neutralization with 8 µL of 0.5 M phosphate buffer, pH 8. The subsequent cycling reaction was conducted in 96-well plate with 16 µL of the sample mixed with 100 µL of the reagent containing 2% ethanol, 100 µg/mL alcohol dehydrogenase, 20 µM resazurin, 11 µg/mL diaphorase, 10 µM flavin mononucleotide and 100 mM sodium phosphate, pH 7. The cycling reaction was allowed to proceed for 10 min and the rate of fluorescence increase of resorufin (with excitation at 544 nm and emission at 590 nm) was measured using the Infinite M200 fluorescence plate reader (TECAN, Grödig, Austria). The relative NAD content was measured from the slope of fluorescence increase and the NAD-glycohydrolase activity was calculated from the decrease of NAD content at 0, 4, 8 and 12 min after the reaction started. As a control, each compound was directly added to the cycling reaction system with corresponding concentration to evaluate the potential interference to the cycling assay itself. IC50 values of inhibitors were calculated by the GraphPad Prism 5 software (GraphPad Software, Inc., La Jolla, CA, USA).

SMILES	IC50, inhibitory activities of CD38 NADase
C[C@@]1(F)[C@H](O)[C@@H](COP(=O)(O)CP(=O)(O)OC[C@H]2O[C@@H]([n+]3cccc(C(N)=O)c3)[C@](C)(F)[C@@H]2O)O[C@H]1[n+]1cccc(C(N)=O)c1 [Compound 22, Bis(2′-deoxy-2′-fluoro-2′-methyl-β-nicotinamide)-methylenediphosphonate]	n.s.

Same assay, conditions: recombinant CD38 0.3 ng, 2 h preincubation at room temperature, NAD 2.5 µM; read-out: IC50, inhibitory activities of CD38 NADase

SMILES	IC50 [µM]
NC(=O)c1ccc[n+]([C@@H]2O[C@H](COP(=O)(O)O)[C@@H](O)[C@@H]2F)c1 [Compound 8, 2′-deoxy-2′-fluoroarabinosyl-β-nicotinamide mononucleotide, reference compound]	0.297
NC(=O)c1ccc[n+]([C@@H]2O[C@H](COP(=O)(O)CP(=O)(O)OC[C@H]3O[C@@H]([n+]4cccc(C(N)=O)c4)[C@@H](F)[C@@H]3O)[C@@H](O)[C@@H]2F)c1 [Compound 21, Bis(2′-deoxy-2′-fluoro-β-nicotinamide-arabinosyl)-methylenediphosphonate]	7.98
NC(=O)c1ccc[n+](C2OC(COP(=O)([O-])OP(=O)(O)OCC3OC(n4cnc5c(=O)[nH]cnc54)C(O)C3O)C(O)C2F)c1 (stereo not drawn) [Compound 12, 2′-Deoxy-2′-fluoro-arabinosyl-β-nicotinamide hypoxanthine dinucleotide]	0.109
NC(=O)c1ccc[n+](C2OC(CSP(=O)(O)OP(=O)([O-])OCC3OC(n4cnc5c(N)ncnc54)C(O)C3O)C(O)C2F)c1 (stereo not drawn) [Compound 10, 2′-Deoxy-2′-fluoro-5′-thio-phosphate-arabinofuranoside-β-nicotinamide adenine dinucleotide]	0.341
COc1ncnc2c1ncn2C1OC(COP(=O)(O)OP(=O)([O-])OCC2OC([n+]3cccc(C(N)=O)c3)C(F)C2O)C(O)C1O (stereo not drawn) [Compound 19, 2′-Deoxy-2′-fluoro-arabinosyl-β-nicotinamide 6-O-methyl-hypoxanthine dinucleotide]	0.133
NC(=O)c1ccc[n+]([C@@H]2O[C@H](COP(=O)(O)OP(=O)(O)OC[C@H]3O[C@@H]([n+]4cccc(C(N)=O)c4)[C@@H](F)[C@@H]3O)[C@@H](O)[C@@H]2F)c1 [Compound 20, Bis(2′-deoxy-2′-fluoro-β-nicotinamide-arabinosyl) pyrophophate]	0.575
NC(=O)c1ccc[n+]([C@@H]2O[C@H](COP(=O)([O-])OP(=O)(O)OC[C@H]3O[C@@H](n4cnc5c(N)ncnc54)[C@H](O)[C@@H]3O)[C@@H](O)[C@@H]2F)c1 [Compound 23, 2′-deoxy-2′-fluoroarabinosyl-β-nicotinamide adenine dinucleotide, reference compound]	0.0611
CC1(F)C(O)C(COP(=O)([O-])OP(=O)(O)OCC2OC(n3cnc4c(N)ncnc43)C(O)C2O)OC1[n+]1cccc(C(N)=O)c1 (stereo not drawn) [Compound 7, 2′-Deoxy-2′-fluoro-2′-methyl-β-nicotinamide adenine dinucleotide]	1810
NC(=O)c1ccc[n+](C2OC(COP(=O)([O-])OP(=O)(O)OP(=O)(O)OCC3OC(n4cnc5c(N)ncnc54)C(O)C3O)C(O)C2F)c1 (stereo not drawn) [Compound 11, P^1-(Adenosine)-P^3-(2′-deoxy-2′-fluoro-β-nicotinamide arabinofuranoside) triphosphate]	1.15
NC(=O)c1ccc[n+](C2OC(COP(=O)([O-])OP(=O)(O)OCC3OC(n4cnc5c(=O)[nH]c(N)nc54)C(O)C3O)C(O)C2F)c1 (stereo not drawn) [Compound 13, 2′-Deoxy-2′-fluoro-arabinosyl-β-nicotinamide guanine dinucleotide]	0.0893

Same assay, conditions: recombinant CD38, NAD 2.5 µM

SMILES	inhibition of CD38 NADase, in words
CC1(F)C(O)C(COP(=O)([O-])OP(=O)(O)OCC2OC(n3cnc4c(N)ncnc43)C(O)C2O)OC1[n+]1cccc(C(N)=O)c1 (stereo not drawn) [Compound 7, 2′-Deoxy-2′-fluoro-2′-methyl-β-nicotinamide adenine dinucleotide]	weak inhibition
